From publication PMC9569971, “New Oxazolo[5,4-d]pyrimidines as Potential Anticancer Agents: Their Design, Synthesis, and In Vitro Biological Activity Research” (International Journal of Molecular Sciences, 2022)
“Also recorded” adds a separate entry of the source. Marks after values point to notes of the source that are not given here. One block for each compound: values may come before it.

What was measured:
[1] = target: T1, P-glycoprotein (P-gp) in HT29 cells (Homo sapiens, UniProt P08183); assay: Rhodamine-123 (Rh-123) accumulation assay; assay type: cell-based; conditions: HT29, 24 h, over all tested concentrations (1–20 μM)
T1 construct: evaluate their effects on the efflux activity of P-gp in HT29 cells; host or cells: HT29 colon adenocarcinoma cells
T1 sequence (P08183 whole entry): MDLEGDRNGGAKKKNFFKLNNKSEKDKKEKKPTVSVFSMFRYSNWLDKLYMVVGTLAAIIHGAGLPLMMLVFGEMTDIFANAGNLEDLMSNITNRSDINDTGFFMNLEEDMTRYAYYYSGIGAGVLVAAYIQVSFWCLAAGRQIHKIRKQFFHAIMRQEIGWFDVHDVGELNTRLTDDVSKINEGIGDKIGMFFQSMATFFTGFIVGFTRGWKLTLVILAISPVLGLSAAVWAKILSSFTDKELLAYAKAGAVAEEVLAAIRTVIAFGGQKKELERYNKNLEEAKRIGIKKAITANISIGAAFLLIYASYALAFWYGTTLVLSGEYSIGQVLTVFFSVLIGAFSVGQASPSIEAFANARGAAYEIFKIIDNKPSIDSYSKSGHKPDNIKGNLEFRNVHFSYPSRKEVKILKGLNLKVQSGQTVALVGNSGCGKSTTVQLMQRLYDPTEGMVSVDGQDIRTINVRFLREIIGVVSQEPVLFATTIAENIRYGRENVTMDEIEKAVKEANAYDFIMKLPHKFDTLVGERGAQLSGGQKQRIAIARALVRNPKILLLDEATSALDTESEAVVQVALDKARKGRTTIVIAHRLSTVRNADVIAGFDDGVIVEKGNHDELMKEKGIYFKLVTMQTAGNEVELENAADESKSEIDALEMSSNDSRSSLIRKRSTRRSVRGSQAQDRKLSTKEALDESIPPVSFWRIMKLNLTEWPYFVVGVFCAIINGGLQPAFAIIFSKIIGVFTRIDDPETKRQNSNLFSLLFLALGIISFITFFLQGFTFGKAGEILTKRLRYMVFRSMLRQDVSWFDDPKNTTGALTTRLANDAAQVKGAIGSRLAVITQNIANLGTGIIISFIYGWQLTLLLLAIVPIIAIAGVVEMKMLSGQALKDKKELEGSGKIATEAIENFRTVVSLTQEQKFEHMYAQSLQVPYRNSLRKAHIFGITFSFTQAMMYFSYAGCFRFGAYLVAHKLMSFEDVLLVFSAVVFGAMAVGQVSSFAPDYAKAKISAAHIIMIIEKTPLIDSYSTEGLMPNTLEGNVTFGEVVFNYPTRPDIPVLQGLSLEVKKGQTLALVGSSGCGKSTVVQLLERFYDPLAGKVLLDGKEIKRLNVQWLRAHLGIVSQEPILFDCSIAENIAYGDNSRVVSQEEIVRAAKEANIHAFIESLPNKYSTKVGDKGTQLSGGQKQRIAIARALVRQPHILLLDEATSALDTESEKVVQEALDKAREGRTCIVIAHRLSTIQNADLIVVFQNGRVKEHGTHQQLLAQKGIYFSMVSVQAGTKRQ
Description: (§1) When the confluence was greater than 70%, adherent cell lines were detached from the bottle surface with a TrypLE solution and then used in assays or reduced. The cells were collected into centrifuge tubes and centrifuged at 1000× g for 5 min at room temperature. The supernatant was removed to dry. The cell pellets were then resuspended in an appropriate medium. The cells were counted using a Bürker chamber and resuspended in 96-well plates to a cell density of 10,000 cells per well for MTT assay. For the rhodamine accumulation test and the detection of apoptosis assay, cells were seeded at a density of 30,000 per well. In the migration assay, cells were seeded at a density of 20,000 per well, and monolayer formation was awaited.
The level of significance was set at p < 0.05.

[2] = tested on: primary colon adenocarcinoma (HT29); assay: MTT viability assay, HT29; assay type: cell-based, human
Description: as §1
(§2) In this study, normal human dermal fibroblasts (NHDFs), breast cancer cells (MCF7), human lung adenocarcinoma cells (A549), murine fibroblasts (L929), colon adenocarcinoma cells (HT29), and colorectal adenocarcinoma cells (LoVo) were used. All cell lines were cultured in the recommended media. […] The human lung adenocarcinoma cell line A549 and breast cancer cell line MCF-7 were obtained from the ECACC. These cell lines were cultured in Eagle’s minimal essential medium (MEM). Murine fibroblast L929 (Sigma-Aldrich, Merck Group, Headquarters, Darmstadt, Germany; the European Collection of Authenticated Cell Cultures—ECACC) cells were grown in DMEM. […] All media were supplemented with 10% FBS and 100 µg/mL of penicillin–streptomycin.
(§3) All compounds were dissolved in DMSO and the reference drugs were dissolved in physiological saline to concentrations of 10 mM. Concentrations from 1 to 500 μM in the media recommended for the cell lines were prepared for the tests.
(§4) All of the synthesized derivatives were evaluated via the MTT assay. All cell lines were seeded into 96-well plates at a density of 10,000 cells per well. To allow the cells to adhere to the surface of the plates, they were incubated overnight before the application of the test compounds. […] The tests were performed for concentrations of 1, 5, 10, 25, 50, 100, 250, and 500 μM. The solutions of the test compounds were removed from the culture on the 96-well plates. […] The supernatant was then removed. The violet crystal was dissolved in isopropanol for 30 min by shaking. Absorbance was measured at 570 nm.
(§5) Biological assays were performed in three independent replicates, and each replicate used four samples. Three repetitions were made for the ELISA determinations. For the assessment of cytotoxicity, mathematical models were developed using the GraphPad PRISM software, based on which CC50 was determined. The values of CC50 were estimated based on nonlinear regression using the dependence of the biological effect on the molar concentrations of the compounds (four-parameter logistic model with Hill slope).

[3] = tested on: breast adenocarcinoma (MCF7); assay: MTT viability assay, MCF7; assay type: cell-based, human; conditions: MCF7, MTT, tested 1–500 µM
Description: as §1, §2, §3, §4, §5

[4] = tested on: normal human dermal fibroblasts (NHDF); assay: MTT viability assay, NHDF; assay type: cell-based; conditions: tested 1–500 µM
Description: as §1, §2, §3, §4, §5

[5] = tested on: HT29 primary colon adenocarcinoma cells; assay: Detection of apoptosis (Annexin V FITC / propidium iodide); assay type: cell-based, human; design: unit not given here; conditions: 24 h
Description: as §1, with “All cell lines were grown in 5% CO2 at 95% humidity and 37 °C, with both morphology and confluence assessed twice per week. When” for “When”
HT29 primary colon adenocarcinoma cells were grown in 96-well plates for 24 h. The 5 selected derivatives were added at concentrations of 1, 2, 5, and 10 µM, and then incubated for 24 h. The mixture of Annexin V conjugated with fluorescein and propidium iodide in PBS with Mg^2+ and Ca^2+ ions (Thermo Fisher Scientific, Waltham, MA, USA) was then applied. The incubation lasted 20 min at 37 °C. Pictures were taken using a fluorescence microscope. Thirteen images were taken from each well using an EVOS FL fluorescence microscope, with three replications for each compound. The open ImageJ space was used to analyze the number of cells. The Thermo Fisher Dead Cell Apoptosis Kit with Annexin V FITC and Propidium Iodide (PI) detects phosphatidylserine extrusion in apoptotic cells using Annexin V conjugated with a green fluorescent FITC dye and dead cells stained by PI with red fluorescence.

[6] = tested on: lung adenocarcinoma (A549); assay: MTT viability assay, A549; assay type: cell-based, human
Description: as §1, §2, §3, §4, §5

[7] = tested on: murine fibroblasts (L929); assay: MTT viability assay, L929; assay type: cell-based; conditions: tested 1–500 µM
Description: as §1, §2, §3, §4, §5

HT29 = tested on: HT29; design: method as in PMID 32759841; conditions: estimated based on data taken from reference; cited from earlier work
Jurkat T-cell = tested on: Jurkat T-cell; design: method as in PMID 32759841; conditions: cited from earlier work

- intracellular increase in rhodamine accumulation [1]: no intracellular increase
SMILES: CNc1ncnc2oc(-c3c(C)noc3N)nc12 [Compound 3a, 2-(5-Amino-3-methylisoxazol-4-yl)-7-N-methylaminooxazolo[5,4-d]pyrimidine]
- SI (selectivity index) ([2]; CC50 NHDF / CC50 HT29): >>1
- CC50 ([2]; Homo sapiens, HT-29, HT29, MTT, tested 1–500 µM): 159 ± 12.1 µM
- CC50 ± SD [3]: no cytotoxic activity
- CC50 ± SD [4]: Non-toxic
- apoptosis mean ([5]; 1 μM): 6.89
- late apoptosis mean ([5]; 1 μM): 11.16
- necrosis mean ([5]; 1 μM): 4.43
- percent live (viable) cells ([5]; 1 μM): 77.51
- apoptosis mean ([5]; 2 μM): 5.35
- late apoptosis mean ([5]; 2 μM): 11.15
- necrosis mean ([5]; 2 μM): 9.07
- percent live (viable) cells ([5]; 2 μM): 74.42
- apoptosis mean ([5]; 5 μM): 9.38
- late apoptosis mean ([5]; 5 μM): 11.51
- necrosis mean ([5]; 5 μM): 2.76
- percent live (viable) cells ([5]; 5 μM): 76.34
- apoptosis mean ([5]; 10 μM): 10.99
- late apoptosis mean ([5]; 10 μM): 12.07
- necrosis mean ([5]; 10 μM): 5.55
- percent live (viable) cells ([5]; 10 μM): 71.40
- SI (selectivity index) ([6]; CC50 NHDF / CC50 A549): >>1 ^c
- CC50 ([6]; Homo sapiens, A549, MTT, tested 1–500 µM): 245 ± 19 µM
- CC50 ± SD [7]: no toxic activity; also recorded: Non-toxic ^b

SMILES: Cc1nc(NCCCN(C)C)c2nc(-c3c(C)noc3N)oc2n1 [SCM9]
- CC50 (HT29): 39.1 ± 7.79 µM
- expression of apoptosis-modulating proteins (Jurkat T-cell; Jurkat T-cell model): did not alter
- expression of MAPK pathway components JNK, p38α, and p38β (Jurkat T-cell): increased
